Experiment [1] deals with compound 48/80-induced lethality. The experiment can be described thus: Protection of rats from compound 48/80-induced lethality. The class given is in vivo, rats of an inbred Wistar strain. As to conditions: Rattus norvegicus, 4 h, read-out: Compound 48/80 lethality test in rats ED50, s.c. or p.o. 1 h before compound 48/80 0.5 mg/kg i.v.; protection of 50% of animals, survival after 4 hours. In short, it runs like this: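 Male inbred Wistar rats (240-260 g), starved overnight, dosed subcutaneously or orally with compound or 0.9% NaCl before compound 48/80 challenge. Survival at 4 hours counted as protection. ED50 in mg/kg is the dose protecting 50% of animals from lethality.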

A further experiment relates to effects of serotonin. The experiment can be described thus: Antagonistic activity on the effects of serotonin in the gastric lesion test (lesions induced by compound 48/80). The experiment is classed as in vivo, rats of a Wistar inbred strain. As to conditions: Rattus norvegicus, po, read-out: gastric lesion test ED50. On the procedure:
Antagonistic activity on the effects of serotonin in the gastric lesion test.
The shock, followed by dead, can be avoided if the rats are pretreated with a classical H 1 antagonist.
Male rats of a Wistar inbred strain, weighing 220-250 g, were starved overnight, water being available ad libitum. The test compounds were administered orally as a solution or as a suspension in aqueous medium. A control rat and a "blank" rat received the test compound. One hour later 5-[4-(diphenylmethyl)1-piperazinylmethyl]-1-methyl-1H-benzimidazole-2-methanol was administered subcutaneously to all rats at the dose of 2.5 mg/kg. […] Four hours after the intravenous injection of compound 48/80, the rats were decapitated and the stomachs were removed. Subsequently the stomachs were inspected for distension and contents (blood, fluid, food) and thoroughly rinsed. The macroscopic lesions were scored from 0 to +++, 0 corresponding to complete absence of visible lesions and the highest score corresponding to reddish rough patches covering more than half the glandular area.
The second column of tables 1-4 show for a number of compounds of formula (I) the doses (in mg/kg body weight) at which the distension of the stomach as well as the lesions in the glandular area of the stomach are completely absent in 50% of the test rats (ED50 -value).

Setting [2] is: compound 48/80 1 mg/kg i.v., distension and lesions of stomach completely absent in 50% of rats.

Structures are written as SMILES. Read-outs that look alike come from different tables or passages of the source.

For `Fc1ccc(Cn2c(CC3CCN(CCNc4ncccn4)CC3)nc3ccncc32)cc1` [Compound 351, N-[2-[4-[[3-[(4-fluorophenyl)methyl]-3H-imidazo[4,5-c]pyridin-2-yl]methyl]-1-piperdinyl]-ethyl]-2-pyrimidinamine], the ED50 in experiment [1] amounted to 0.02 mg/kg; in the experiment with effects of serotonin, 0.08 mg/kg.
The corresponding values for `Cc1nc2n(c(=O)c1CCN1CCC(Cc3nc4ccccc4n3Cc3ccco3)CC1)CCCC2` [Compound 226] are 0.08 mg/kg and 0.04 mg/kg.
In the case of `c1cnc(NCCN2CCC(Cc3nc4ccccc4n3Cc3ccco3)CC2)nc1` [Compound 334], the ED50 came to 0.005 mg/kg in experiment [1] and 0.31 mg/kg in the experiment on effects of serotonin (setting [2]).
For the compound `Fc1ccc(Cn2c(CC3CCN(Cc4ccccc4)CC3)nc3ccccc32)cc1` [Compound 34, 1-[(4-fluorophenyl)methyl]-2-[[1-(phenylmethyl)-4-piperidinyl]methyl]-1H-benzimidazole], the ED50 in experiment [1] was determined as 0.04 mg/kg; in the experiment with effects of serotonin (setting [2]) it was 0.63 mg/kg.
With `COc1ccc(CCN2CCC(Cc3nc4ccc(O)cc4n3Cc3ccc(F)cc3)CC2)cc1` [Compound 276], the values for the ED50 (in experiment [1]; in the experiment on effects of serotonin (setting [2])) were 0.04 mg/kg and 0.31 mg/kg, respectively.
Consider `O=c1[nH]c2ccccc2c(=O)n1CCN1CCC(Cc2nc3ccccc3n2Cc2ccco2)CC1` [Compound 208], for which the ED50 in experiment [1] came out at 0.04 mg/kg; in the experiment with effects of serotonin, 0.08 mg/kg.
For `COc1ccc(CCN2CCC(Cc3nc4cccnc4n3Cc3ccc(F)cc3)CC2)cc1` [Compound 236], the ED50 in experiment [1] amounted to 0.08 mg/kg; in the experiment on effects of serotonin (setting [2]), 0.63 mg/kg.
Take `O=C(NCCN1CCC(Cc2nc3ccccc3n2Cc2ccc(F)cc2)CC1)c1cccs1` [Compound 443, N-[2-[4-[[1-[(4-fluorophenyl)methyl]-1H-benzimidazol-2-yl]methyl]-1-piperidinyl]ethyl]-2-thiophenecarboxamide]: the ED50 in experiment [1] was determined as 0.02 mg/kg; in the experiment on effects of serotonin (setting [2]), 0.16 mg/kg.
As for `OCCN1CCC(Cc2nc3ccccc3n2Cc2ccc(F)cc2)CC1` [Compound 107, 4-[[1-[(4-fluorophenyl)methyl]-1H-benzimidazol-2-yl]methyl]-1-piperidineethanol], the ED50 in experiment [1] amounted to 0.04 mg/kg; with effects of serotonin it was 0.08 mg/kg.
On to `c1ccc(Cn2c(CC3CCN(CCNc4nc5cnccc5[nH]4)CC3)nc3ccccc32)cc1` [Compound 422, N-[2-[4-[[1-(phenylmethyl)-1H-benzimidazol-2-yl]methyl]-1-piperidinyl]ethyl]-1H-imidazo[4,5-c]pyridin-2-amine], for which the ED50 (in experiment [1]; with effects of serotonin) was 0.04 mg/kg throughout.
On to `Cn1c(O)nc2c(NCCN3CCC(Cc4nc5ccccc5n4Cc4ccc(F)cc4)CC3)ncnc21` [Compound 371], for which the figures for the ED50 (in experiment [1]; in the experiment on effects of serotonin (setting [2])) were 0.16 mg/kg and 0.63 mg/kg, respectively.
The corresponding values for `Oc1ccc(CCN2CCC(Cc3nc4ccccc4n3Cc3ccc(F)cc3)CC2)cc1` [Compound 504, 4-[2-[4-[[1-[(4-fluorophenyl)methyl]-1H-benzimidazol-2-yl]methyl]-1-piperidinyl]ethyl]phenol] are 0.08 mg/kg and 0.63 mg/kg.
Take `O=C(NCCN1CCC(Cc2nc3ccccc3n2Cc2ccc(F)cc2)CC1)C(=O)c1cccs1` [Compound 439, N[2-[;b 4-[[1-[(4-fluorophenyl)methyl]-1H-benzimidazol-2-yl]methyl]-1-piperidinyl]ethyl]-α-oxo-2-thiopheneacetamide]: the values for the ED50 (in experiment [1]; with effects of serotonin (setting [2])) were 0.16 mg/kg and 0.31 mg/kg, respectively.
With `Nc1ccccc1C(=O)NCCN1CCC(Cc2nc3ccccc3n2Cc2ccc(F)cc2)CC1` [Compound 468, 2-amino-N-[2-[4-[[1-[(4-fluorophenyl)methyl]-1H-benzimidazol-2-yl]methyl]-1-piperidinyl]ethyl]benzamide], the values for the ED50 (in experiment [1]; with effects of serotonin (setting [2])) were 0.02 mg/kg and 0.63 mg/kg, respectively.
In the same order, the values of `Fc1ccc(Cn2c(CC3CCN(CCc4ccccn4)CC3)nc3cccnc32)cc1` [Compound 101] are 0.02 mg/kg and 0.31 mg/kg.
Take `O=c1[nH]c2ccccc2c(=O)n1CCN1CCC(Cc2nc3ccccc3n2Cc2ccc(F)cc2)CC1` [Compound 209]: the ED50 in experiment [1] turned out to be 0.08 mg/kg; with effects of serotonin (setting [2]) it was 0.63 mg/kg.
